Measurements as given in US12636284B2, “Compositions for use in the prevention and/or treatment of intellectual disability and neurodegenerative diseases in a subject with down syndrome” (UNIVERSITA' DEGLI STUDI DI ROMA “LA SAPIENZA”, priority 2021, dated 2026).

Experiments:
Format in all cases: in vivo, mouse
Ts2Cje mice = assay: Novel object recognition (NOR) cognitive test after intranasal treatment; conditions: Ts2Cje mice 9 months of age; sitagliptin 5 mM intra-nasally, 10 μL/nostril, once a day for 21 days
From the text: Finally, animals were sacrificed using cervical dislocation. […] The Novel object recognition (NOR) test is a relatively fast and efficient means of testing different stages of learning and memory in mice. The test is based on a minimum of three sessions: a habituation session (Day 1), a training session (Day 2) and a test session (Day 3). Training simply involves visual exploration of two identical objects, while the test session involves replacing one of the previously explored objects with a new object. Since rodents have an innate preference for novelty, a rodent that remembers the familiar object will spend more time exploring the new object. […] In the habituation stage, each animal can freely explore the arena for 10 minutes (50 cm deep×30 cm wide×30 cm high) in the absence of objects. During the training stage, a single animal is placed in the arena containing two identical objects (two balls) for 10 min. In the testing stage, after 24 hours, the animal is brought back to the arena with two objects, one is the familiar object and the other is a new object (ball+lego). […] In the analysis stage, the discrimination index (DI) and preference index (PI) are evaluated. The discrimination index (DI) allows calculation of the animal's ability to discriminate between new (TN) and familiar (TF) objects [DI=(TN−TF)/(TN+TF)]. […]

[1] = Body weight, body surface area and body mass index during treatment; conditions: Ts2Cje mice; sitagliptin 5 mM intranasal, 21 days
Experimental: Finally, animals were sacrificed using cervical dislocation.
Furthermore, mice were measured at the beginning and at the end of the treatment to evaluate the length in centimeters (cm). For calculating the body mass surface, the DuBois equation was used: body surface area (m^2)=0.007184×weight ([…])×height ([…]). The body mass index was calculated as the ratio between weight and BSA (gr/m^2). At the end of the treatment, the glucose tolerance test (GTT) was carried out on the four experimental groups. After a fasting period of 6 hours, the animals' basal blood glucose was assessed with a small blood sample from the tail (T0). Subsequently, the same animals were treated with a glucose solution (10%, intraperitoneal injection) and blood glucose was measured with a glucometer (lineD ORO, Bioseven) after 30-60-90-120 minutes.

GSK3b protein = assay: Western blot of GSK3b activation (pS9/pT216) in hippocampus; conditions: brains (hippocampus) of Ts2Cje mice
Experimental: (§1) For the duration of the treatment, the mice were weighed weekly in order to assess any weight changes. After 21 days of treatment, the animals underwent a behavioral test to assess their memory and learning abilities. After the behavioral test, metabolic parameters such as blood glucose (both fasting and under the glycemic curve), body surface area (BSA) and body mass index (BMI) were assessed. Finally, animals were sacrificed using cervical dislocation. The brain and peripheral areas were isolated and collected in liquid nitrogen and subsequently stored at −80° C. until they were used for biochemical analyzes.
(§2) Total protein extracts were prepared from the frontal cortex for human autopsy samples and from the hippocampus for mouse samples, using RIPA solution (pH 7.4) containing TrisHCl (50 mM, pH 7.4), NaCl (150 mM), 1% NP-40, 0.25% sodium deoxycholate, ethylenediamine tetracetic acid (EDTA) (1 mM), and 0.1% sodium dodecyl sulfate (SDS). […] For the rest of the experiments, protein extracts were supplemented with cocktails of protease and phosphatase inhibitors (Sigma Aldrich, St Louis, MO, USA). Brain tissues were homogenized in the solution described above by sonication, and centrifuged at 14,000 rpm for 30 min at 4° C. The supernatant was used to determine total protein concentration by means of the bicinchoninic acid assay (BCA, Pierce, Rockford, IL). […]

[2] = test system: MAPK44/42 and Akt pathway; assay: Western blot of Akt and MAPK44/42 activation in hippocampus
Experimental: as §1, §2

[3] = test system: oxidative stress levels (3-NT, 4-HNE); assay: Slot blot of oxidative stress markers 3-NT and 4-HNE in hippocampus
Experimental: The samples (250 μl per well) were loaded into the wells of the slot-blot apparatus and transferred to a nitrocellulose membrane. The membrane was blocked for 2 h with a 3% solution of bovine serum albumin in T-TBS, and incubated with a primary anti-HNE polyclonal antibody (1:3000; HNE, NOVUS, #NB100-63093) or anti-3-NT (1:1000; Sigma Aldrich, #SAB52000009), for 2 hours at room temperature. The membrane was washed with T-TBS and incubated with alkaline phosphatase conjugated anti-rabbit or anti-mouse secondary antibody (1:5000, Sigma Aldrich) for 1 hour at room temperature. […] Finally, the results obtained were analyzed using the ImageLab program (Bio-rad, Hercules, CA, USA).

With N[C@@H](CC(=O)N1CCn2c(nnc2C(F)(F)F)C1)Cc1cc(F)c(F)cc1F [sitagliptin, (R)-4-oxo-4-[3-(trifluoromethyl)-5,6-dihydro[1,2,4]triazole[4,3-a]pyrazin-7(8H)-yl]-1-(2,4,5-trifluorophenyl)butan-2-amine] the “cognitive performance, novel object recognition (NOR)” value (Ts2Cje mice) was “marked improvement in cognitive performance”, the “phenotypic or morphometric changes (weight, BSA, BMI)” value [1] was “no phenotypic or morphometric changes” and the “activation of the GSK3b protein” value (GSK3b protein) was “increased activation”. The “activation of the cerebral insulin signal, MAPK44/42” value ([2]; Western blot p(Thr202/Tyr204)-MAPK44/42) was “restoration of the activation”, the “activation of the cerebral insulin signal, Akt” value ([2]; Western blot p(ser473)-Akt) was “restoration of the activation” and the “oxidative stress levels (3-NT, 4-HNE)” value [3] was “reduction”.
